Consider two compounds from patent US7714034B2, “Photopolymerizable dental materials with bisacylphosphine oxides as initiators” (Ivoclar Vivadent AG, priority 2006, dated 2010).

Each structure is given as a SMILES string.

The series is described as follows: solubility of the photoinitiator. The format is physicochemical. An excerpt:
The bisacylphosphine oxides of the formula (I) absorb in the UV region and also show an absorption greater than 400 nm, so that their photolysis and radical formation can be induced by irradiation with halogen lamps customary in the dental field or also with LED lamps. The bisacylphosphine oxides of the formula (I) contain polymerizable groups and can be incorporated into polymers e.g. by copolymerization. Moreover, the bisacylphosphine oxides according to the invention are very well soluble in polar organic solvents such as acetone, ethanol, acetonitrile or tetrahydrofuran (THF) or their mixtures with water, i.e. the solubility is at least 0.01 mmol/g. It is particularly advantageous that the bisacylphosphine oxides according to the invention show a better storage stability compared with known bisacrylphosphine oxides. The compounds are characterized by a high hydrolysis stability, i.e. they are not more than 15% hydrolyzed in a mixture of […]:H2O (60:40) at 42° C. in 60 days.
To prepare the model formulation, 0.022 mmol of the photoinitiator described in Example 1 were weighed into an analysis tube and made up to 1.00 g with the above composition and dissolved accompanied by slight heating. […]

Turning to `C=CCOCCOCc1c(C)cc(C)c(C(=O)P(=O)(C(=O)c2c(C)cc(C)c(COCCOCC=C)c2C)c2ccccc2)c1C` [BAPOmAOEM], the “solubility compared with Irgacure 819” value is on record as “better solubility”. For `Cc1cc(C)c(C(=O)P(=O)(C(=O)c2c(C)cc(C)cc2C)c2ccccc2)c(C)c1` [Irgacure819, bis-(2,4,6-trimethylbenzoyl)-phenylphosphine oxide], the maximum solubility result (in the primer composition (DEBAMP/DHPAE/water)) is recorded as “^5Irgacure 819 was used due to its low solubility in a concentration of 0.005 mmol/g (= maximum solubility)”.
